Legend:
[1] = tested on: HEK293A cells transduced with h-α-syn PFFs; assay: Immunocytochemistry in HEK293A cells transduced with h-α-syn PFFs; assay type: cell-based, human
Description: Recombinant human α-syn (1–140) were obtained from NKMAX (SNA2001L). In vitro fibrillization was performed by diluting recombinant α-syn monomers to 1 mg/mL in sterile PBS, then incubating at 37 °C with constant agitation at 1,000 rpm for seven days. The fibrillization was verified by thioflavin T and sedimentation assays. The ability to form phospho-α-syn (S129) was also assessed by immunocytochemistry. In addition, to determine whether the generated PFFs act as seeds to accumulate endogenous α-syn, an adenovirus that expresses c-Myc-His-tagged human α-syn (gifted from lab of S.J.L) was used to infect cultured cells at an MOI of 10, followed by a fractionation assay. The administration of PFFs into 293A cells was done with protein delivery reagent (BioPORTER QuikEase Protein Delivery Kit, Sigma) following the provider’s instruction. The mouse α-syn PFFs were obtained from StressMarq (SPR-324). Prior to treatment, PFFs were sonicated at 20% amplitude, 1 s pulse on and off for 30 s (SONICS Vibra Cell sonicator, Merck Z412619). For cells, α-syn monomers and PFFs were transduced at 1 µg/mL.
(§1) Cells were fixed with 4% paraformaldehyde (PFA) for 20 min at room temperature, followed by permeabilization with 0.1% Triton X-100 buffer for 15 min. The cells were blocked with 2% bovine serum albumin (BSA) in PBS for 1 h at room temperature. Then, the cells were incubated with primary antibodies diluted in the blocking buffer overnight at 4 °C. After washing with PBS, the slides were incubated with AlexaFluor-conjugated secondary antibodies for 1 h at room temperature. After mounting the slides with mounting solution containing DAPI, the images were captured on an LSM700 confocal microscopy (Carl Zeiss).

LAMP1+ lysosomes = assay: Immunocytochemistry of LAMP1+ lysosomes in SH-SY5Y α-syn A53T cells transduced with PFFs; assay type: cell-based, human; conditions: 1 μM, 6 h, with Baf. A1
Description: as §1

p62 and α-syn aggregates = biological target: T1, p62 and α-syn aggregates (Homo sapiens, UniProt P37840+Q13501); assay: Proximity ligation assay (PLA) of p62 and α-syn in HEK293A cells; assay type: cell-based; conditions: 1 μM, 6 h
T1 construct: Recombinant human α-syn (1–140) were obtained from NKMAX (SNA2001L); endogenous in cells; host or cells: HEK293A cells transduced with h-α-syn PFFs
Description: Proximity ligation assays were conducted using a PLA kit (Sigma-Aldrich) according to the manufacturer’s protocol. 293A Cells were seeded on coverslips and cultured for 24 h. After fixation with 4% PFA, the cells were permeabilized with 0.1% Triton X-100. The cells were incubated with antibodies for p62 (Abcam; ab56319) and alpha-synuclein aggregates (Abcam; ab209538) overnight at 4 °C. After washing with PLA washing buffer, the cells were hybridized, ligated and amplified by rolling circle. Coverslips were mounted on slides using mounting medium containing DAPI, and the images were captured by confocal microscopy (Zeiss).

[2] = Pharmacokinetic study of ATC161 in male ICR mice; assay type: in vivo
Description: Supplementary file 13024_2023_630_MOESM1_ESM.eps: Additional file 1: Supplementary figure 1. Drug profiles of ATL and Autotac compounds. A, drug profiles of ATL compounds. Tissue concentrations and oral bioavailability were measured in ICR male mice upon 5 mg/kg oral administration of each ATL compound. B, structures of ATC161~164. C, Pharmacokinetic study of ATC161 conducted in male ICR mice otherwise indicated. M.W. represents molecular weight. The plasma exposure and the half-life were determined upon either POor IPATC161 administration. The drug tissue exposure was determined in Tau301L BiFC mice. IV refers to intravenous injection.

insoluble α-syn species = assay: Triton X-100 fractionation assay in primary rat cortex neurons; assay type: cell-based
Description: All procedures were conducted according to the IACUC and were approved by Seoul National University Institutional Animal Care and Use Committee. Rat cortex primary neuron were prepared from E16 Sprague–Dawley rat embryos (Orient Bio). Anesthetized […] were sacrificed by cervical dislocation, and embryos were removed. Cortices were dissected on the ice. Neurons were trypsinized, dissociated and plated onto poly-d-lysine coated cover slips at a density of 5 × 10^4 cells per cm^2 per 12-well plate or 6-well plate. Primary neurons were maintained in Neurobasal A medium containing 2% B27, 0.5 mM glutamax and antibiotics. Cells at 7 DIV were treated with h-α-syn PFF (1 µg/mL) for 14 d.
(§2) For the separation of Triton X-100 soluble and insoluble fractions for monitoring α-syn, cells were washed with PBS and lysed in Triton X-100 buffer (50 mM Tris / 150 mM NaCl / 100 mM EDTA / 1% Triton X-100, pH 7.6) containing protease and phosphatase inhibitors for 30 min on ice. The lysates were centrifuged at 12,000 rpm for 30 min, and the soluble supernatant was taken. The remaining pellets were washed with Triton X-100 buffer, followed by centrifugation at 12,000 rpm for 20 min. […] Immunoreactive bands were detected using ECL reagents (Thermo Fisher Scientific, 32,106). […] Densitometry of developed bands was analyzed with ImageJ (NIH, Bethesda).

LC3 = assay: Western blot of LC3 lipidation (LC3-I into LC3-II) in HeLa cells; assay type: cell-based; conditions: 1 μM, 24 h
Description: For the separation of Triton X-100 soluble and insoluble fractions for monitoring α-syn, cells were washed with PBS and lysed in Triton X-100 buffer (50 mM Tris / 150 mM NaCl / 100 mM EDTA / 1% Triton X-100, pH 7.6) containing protease and phosphatase inhibitors for 30 min on ice. The lysates were centrifuged at 12,000 rpm for 30 min, and the soluble supernatant was taken. The remaining pellets were washed with Triton X-100 buffer, followed by centrifugation at 12,000 rpm for 20 min. The supernatants were discarded, and the resulting insoluble pellets were resuspended in laemli buffer containing 1% SDS. Samples were subjected to SDS-PAGE. After blocking with 5% milk and washing process, the membranes were incubated with primary antibodies overnight at 4 °C, followed by washing with PBS-T and incubation with horseradish peroxidase-conjugated secondary antibodies. Immunoreactive bands were detected using ECL reagents (Thermo Fisher Scientific, 32,106). For non-reducing SDS-PAGE, cell lysates were mixed with 4 × laemli buffer containing no 2-mercaptoethanol. For reducing SDS-PAGE, cells were lysed by RIPA buffer (150 mM NaCl, 1% Triton X-100, 1% sodium deoxycholate, 0.1% Tris–HCl, pH 7.5, 2 mM EDTA) and prepared with 5 × protein sample buffer containing 2-mercaptoethanol (Elpis Biotech, EBA-1052). Densitometry of developed bands was analyzed with ImageJ (NIH, Bethesda).

p62 = biological target: T2, p62 (Mus musculus, UniProt Q64337); assay: Western blot in wild-type and p62-/- MEFs transduced with α-syn PFFs; assay type: cell-based; conditions: 1 μM, 12 h
T2 construct: endogenous in cells; host or cells: wild-type and p62-/- MEFs (Keiji Tanaka's laboratory)
Text: Wild type human neuroblastoma cells (SH-SY5Y) and Hela were obtained from Korean Cell Line Bank. SH-SY5Y α-syn A53T cells, COS7 cells and 293A cell line were kindly gifted from S.J.L. lab. COS7 cells, 293A cells, wild-type and p62^−/− MEF cells, and wild type or A53T mutant α-syn SH-SY5Y cells were maintained in Dulbecco’s Modified Eagle’s Medium (DMEM) containing 10% fetal bovine serum (FBS). Wild-type and p62^−/− MEFs were obtained from Keiji Tanaka’s laboratory (Tokyo Metropolitan Research Institute, Japan). Cells were incubated at 37 °C in a 5% CO2 humidified chamber. The differentiation of SH-SY5Y α-syn A53T cells was done by 10 µM retinoic acid for 7 days prior to subsequent experiments.
as §2

T2 sequence (Q64337 whole entry): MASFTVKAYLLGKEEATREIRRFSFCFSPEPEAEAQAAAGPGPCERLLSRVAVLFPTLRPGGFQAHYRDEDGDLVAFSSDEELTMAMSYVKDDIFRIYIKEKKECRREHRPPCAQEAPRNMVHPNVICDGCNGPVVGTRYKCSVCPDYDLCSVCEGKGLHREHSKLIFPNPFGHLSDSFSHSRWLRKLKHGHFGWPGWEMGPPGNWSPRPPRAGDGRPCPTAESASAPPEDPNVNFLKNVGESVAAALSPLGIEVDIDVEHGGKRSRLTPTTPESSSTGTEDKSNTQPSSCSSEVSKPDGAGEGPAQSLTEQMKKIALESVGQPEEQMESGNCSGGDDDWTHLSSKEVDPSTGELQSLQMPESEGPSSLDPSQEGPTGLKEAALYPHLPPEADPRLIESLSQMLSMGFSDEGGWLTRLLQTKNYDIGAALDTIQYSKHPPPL

Fc1ccc(COc2cccc(CNCCOCCOCCNc3cccc(-c4cc(-c5ccc6c(c5)OCO6)n[nH]4)c3)c2)cc1 [ATC161, 3-(3-(benzo[d][1,3]dioxol-5-yl)-1H-pyrazol-5-yl)-N-(2-(2-(2-((3-((4-fluorobenzyl)oxy)benzyl)amino)ethoxy)ethoxy)ethyl)aniline]
number of phospho-H2AX+ foci (DNA double strand breaks) ([1]; 0.1 μM, 48 h): robust efficacy to reduce the number of phospho-H2AX^+ foci | reduction in number of α-syn+ cytosolic puncta ([1]; 1 μM, 24 h): 55% | increase in level of LAMP1+ lysosomes (LAMP1+ lysosomes): 2.9 fold | PLA+ signals of p62 with α-syn monomers (p62 and α-syn aggregates; cells transduced with α-syn monomers): failed to induce PLA^+ signals | interaction between p62 and α-syn aggregates (PLA puncta) (p62 and α-syn aggregates; α-syn PFF-transduced cells): dramatically increased the number and sizes of PLA puncta | half-life ([2]; male, ICR, oral, mouse plasma, read-out: terminal elimination half-life (T1/2) (converted)): 222 min | systemic exposure ([2]; oral administration, mice): 3299.3 ng·h/mL | concentration of lysosomal degradation of aggregates (insoluble α-syn species; PD model cells (discussion)): 10 nM | concentration from which insoluble α-syn species are targeted (insoluble α-syn species; primary rat cortex neurons, soluble monomeric form intact): 10 nM | lipidation of LC3 into LC3-II compared with ATC162 (LC3): induced the lipidation of LC3 into LC3-II more efficiently | lipidation of LC3 in the absence of p62 (p62): failed to induce the lipidation of LC3 into LC3-II

Reference: paper PMC10290391, “Targeted degradation of ⍺-synuclein aggregates in Parkinson’s disease using the AUTOTAC technology” (Molecular Neurodegeneration, 2023)
